# Measurements reported in patent US7186819B2, “Glutamate receptor and utilization thereof” (Ajinomoto Co., Inc., priority 2002, dated 2007).
# Legend:
# [1] = system: vagal gastric branch; experiment: Vagal gastric branch afferent nerve activity recording after administration to stomach; assay type: in vivo, rat; settings: 150 mM administered to stomach; urethane-anesthetized fasted Wistar rats; FIG. 4
# Procedure: Rats (Wistar strain, males, 8 to 10 weeks age; Nippon Charles Liver) were fasted for 18 hours, laparotomy was conducted under anesthetization with urethane (1 g/kg; i.p.) and vagal gastric branch was exfoliated to an extent of about 5 mm. After vagal bundle was cut, it was placed on a small operation stand (8×6 mm), fat and bonded tissues around that were carefully detached and the terminal fiber at the side of organ was placed on a dipole electrode made of platinum for recording and insulated from the surrounding tissues by a mixture of liquid paraffin-vaseline (1:1). […]
# Nerve action potential was amplified to an extent of 10,000-fold by a micropotential amplifier (DAM-80 manufactured by WPI); and after noise was reduced by a Vessel filter (4-pole, High Cut 10 Hz, Low Cut 1 KHz), it was subjected to an A/D conversion (Powerlab 4sp, manufactured by ADI Instruments, Inc.) and incorporated into a computer (sampling rate 3 KHz, iBook). At the same time, an amplified signal was separated by a window discriminator (DSE-435 manufactured by Daiya Medical Co., Ltd.) into a noise component and a nerve signal component together with monitoring by an oscilloscope, integrated for 5 seconds by a spike counter (DSE-335P manufactured by Daiya Medical Co., Ltd.) and recorded in a chart recorder (WT-465G manufactured by Nippon Koden Corporation). […]
# [2] = target: T1, mGluRTβa (Rattus norvegicus, UniProt P23385); experiment: Two-electrode membrane potential fixation measurement of calcium-dependent chloride current in Xenopus oocytes expressing mGluRTβa; assay type: cell-based; settings: medium containing 50 mM, potential fixed at -70 mV, current disappeared on substituting the medium again, FIG. 6
# T1 construct: expressed in transfected cells; host or cells: Xenopus oocytes injected with cRNA transcribed from pCRII-TOPO/mGluRTβ
# T1 sequence (P23385 410-1199): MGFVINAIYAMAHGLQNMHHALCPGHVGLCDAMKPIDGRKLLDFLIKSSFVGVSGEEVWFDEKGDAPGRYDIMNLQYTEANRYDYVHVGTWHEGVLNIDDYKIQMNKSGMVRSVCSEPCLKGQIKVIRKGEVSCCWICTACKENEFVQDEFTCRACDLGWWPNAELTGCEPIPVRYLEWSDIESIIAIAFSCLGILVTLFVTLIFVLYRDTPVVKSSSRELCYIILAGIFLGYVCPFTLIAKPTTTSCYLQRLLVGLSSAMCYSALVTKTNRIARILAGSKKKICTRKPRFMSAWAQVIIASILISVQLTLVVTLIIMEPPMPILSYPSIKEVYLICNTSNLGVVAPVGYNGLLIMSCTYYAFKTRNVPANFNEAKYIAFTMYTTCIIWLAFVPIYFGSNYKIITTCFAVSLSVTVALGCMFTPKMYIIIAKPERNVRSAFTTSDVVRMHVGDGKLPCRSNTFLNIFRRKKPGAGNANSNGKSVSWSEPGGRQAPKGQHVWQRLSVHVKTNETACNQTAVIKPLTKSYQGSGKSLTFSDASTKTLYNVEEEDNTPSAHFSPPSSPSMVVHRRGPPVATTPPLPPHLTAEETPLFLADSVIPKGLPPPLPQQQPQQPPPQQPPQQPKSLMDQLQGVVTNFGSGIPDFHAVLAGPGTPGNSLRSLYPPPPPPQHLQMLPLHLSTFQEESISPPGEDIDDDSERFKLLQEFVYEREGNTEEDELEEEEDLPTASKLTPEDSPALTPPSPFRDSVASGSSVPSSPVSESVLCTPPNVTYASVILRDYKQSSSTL
# Procedure: (§1) Oocyte-expressing strain of Xenopus was used for analysis of function of mGluR1 mRNA derived from circumvallate papilla of rats.
# (§2) Female Xenopus (purchased from Watanabe Zoshoku) was bred in a fish tank until oocytes were isolated. The Xenopus was anesthetized with tricain methanesulfonate (MS 222, Sigma) dissolved in deionized water in a concentration of 1 g/L followed by buffering with NaHCO3 (500 mg/L). Anatomy was conducted by hand and oocytes in stages V and VI were recovered from ovary and incubated (for 30 minutes to 1 hour) in a 0.2% collagenase S-1 (Nitta Gelatin) until dissociation took place. After treating with collagenase, the oocytes were washed; follicles were removed; selection was conducted under a microscope; and incubation was carried out at 18° C. for one night.
# (§3) Since the polymerase remains […] in PCR fragments, PCR-amplified mGluRTβa and mGluRTγa template DNA were inserted into pCRII-TOPO vector (Invitrogen) by a TOPO-TA cloning reaction. pCRII-TOPO/mGluRTγ vector and pCRII-TOPO/mGluRTβ vector were made into straight lines using EcoRV and XbaI, respectively, extracted with a mixture of phenol and chloroform and precipitated with ethanol together with sodium acetate. After a sequence analysis, cRNA was prepared using a transcription kit for Sp6 promoter made by Ambion (mMESSAGE mMACHINE kit) binding to pCRII-TOPO promoter.
# [3] = target: T2, mGluRTγa (Rattus norvegicus, UniProt P23385); experiment: Two-electrode membrane potential fixation measurement of calcium-dependent chloride current in Xenopus oocytes expressing mGluRTγa; assay type: cell-based; settings: potential fixed at -70 mV
# T2 construct: expressed in transfected cells; host or cells: Xenopus oocytes injected with cRNA transcribed from pCRII-TOPO/mGluRTγ
# T2 sequence (P23385 410-1199): as above
# Procedure: as §1, §2, §3
# [4] = system: oocytes into which cRNA was not injected; experiment: Two-electrode membrane potential fixation measurement of membrane current in oocytes not injected with cRNA; assay type: cell-based, Xenopus; settings: data not shown
# Procedure: as §2
smiles,measurement,setting,value
"N[C@@H](CCC(=O)[O-])C(=O)[O-].[Na+].[Na+] [MSG, sodium L-glutamate]",Centripetal activity of vagal gastric branch,[1],accelerated
same,Membrane current (calcium-dependent chloride current),[2],continuous introvert current was induced
same,Membrane current (calcium-dependent chloride current),[3],same introvert current was also observed
same,Membrane current (calcium-dependent chloride current),[4],not observed
